Reference: patent EP1849783A1, “Octahydropentalene-substituted pyrazoline compounds, their preparation and use as medicaments” (LABORATORIOS DEL DR. ESTEVE, S.A., priority 2006, dated 2007)
Structures can show the parent of a compound that is named as a salt.

Experiments:
[1] = target: T1, transfected human CB1 receptors (Homo sapiens, UniProt P21554); assay: in-vitro determination of affinity to CB1-Receptor (radioligand binding); settings: transfected human CB1 receptors of Receptor Biology, Inc.; radioligand [^3H]-CP55940; read-out: CB1-Receptor Radiologand :[^3H]-CP55940 IC50
T1 construct: purchased Receptor Biology, Inc
T1 sequence (P21554 whole entry): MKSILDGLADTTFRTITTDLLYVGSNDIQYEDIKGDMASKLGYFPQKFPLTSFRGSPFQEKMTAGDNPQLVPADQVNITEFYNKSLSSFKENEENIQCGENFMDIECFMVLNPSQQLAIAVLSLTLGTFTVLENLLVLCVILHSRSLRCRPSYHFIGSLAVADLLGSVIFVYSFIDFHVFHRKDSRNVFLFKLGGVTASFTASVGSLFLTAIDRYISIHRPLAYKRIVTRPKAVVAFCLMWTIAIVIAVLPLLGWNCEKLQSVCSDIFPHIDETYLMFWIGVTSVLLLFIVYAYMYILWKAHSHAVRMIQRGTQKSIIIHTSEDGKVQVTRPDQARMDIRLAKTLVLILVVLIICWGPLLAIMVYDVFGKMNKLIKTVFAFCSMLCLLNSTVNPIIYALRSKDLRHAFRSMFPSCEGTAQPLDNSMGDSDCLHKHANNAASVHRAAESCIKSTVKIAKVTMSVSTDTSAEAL
Experimental: The in-vitro determination of the affinity of the inventive quaternary ammonium salts of substituted pyrazoline compounds to CB1/CB2-Rezeptors is carried out as described in the publication of Ruth A. Ross, Heather C. Brockie et al., "Agonist-inverse agonist characterization at CB1 and CB2 cannabinoid receptors of L-759633, L759656 and AM630", British Journal of Pharmacology, 126, 665-672, (1999), whereby the transfected human CB1 and CB2 receptors of Receptor Biology, Inc. are used. The radioligand used for both receptors is [^3H]-CP55940. The respective parts of the description are hereby incorporated by reference and forms part of the present disclosure.

cannabinoid receptors = assay: Mouse tetrad model, antagonistic activity against Win 55212-2; assay type: in vivo, Male NMRI mice; settings: against Win 55212-2 (1.25 mg/kg intravenous), substance injected 5 minutes before the agonist, mice
From the text: Substances with affinity for cannabinoid receptors are known to produce a wide range of pharmacological effects. It is also known that intravenous administration of a substance with affinity for cannabinoid receptors in mice produces analgesia , hypothermia, sedation and catalepsy. Individually, none of these effects can be considered as proof that a tested substance has affinity for cannabinoid-receptors, since all of these effects are common for various classes of centrally active agents. However, substances, which show all of these effects, i.e. substances that are active in this so-called tetrad model are considered to have affinity for the cannabinoid receptors. It has further been shown that cannabinoid receptor antagonists are higly effective in blocking the effects of a cannabinoid agonist in the mouse tetrad model.
The tetrad model is described, for example, in the publication of A. C. Howlett et al, International Union of Pharmacology XXVII. Classification of Cannabinoid Receptors, Pharmacol Rev 54, 161-202, 2002 and David R. Compton et al., "In-vivo Characterization of a Specific Cannabinoid Receptor Antagonist (SR141716A) Inhibition of Tetrahydrocannbinol- induced Responses and Apparent Agonist Activity", J. Pharmacol. Exp. Ther. 277 , 2, 586-594, 1996. The corresponding parts of the description are hereby incorporated by reference. […]
Before testing in the behavioral procedures given below, mice are acclimatized to the experimental setting. Pre-Treatment control values are determined for analgesia hot plate latency (in seconds), rectal temperature, sedation and catalepsy.
In order to determine the agonistic activty of the substance to be tested, the mice are injected intravenously with the substance to be tested or the vehicle alone. 15 minutes after injection, latency in hot plate analgesia is measured. Rectal temperature, sedation and catalepsy are measured 20 minutes after injection.
In order to determine the antagonistic activity the identical procedure is used as for the determination of the agonistic effects, but with the difference that the substance to be evaluated for its antagonistic activity is injectected 5 minutes before the intravenous injection of 1.25 mg/kg Win-55,212 a known cannabinoid-receptor agonist.
The hot plate analgesia is determined according to the method described in Woolfe D. et al. "The evaluation of analgesic action of pethidine hydrochloride (Demerol)", J. Pharmacol. Exp. Ther. 80, 300-307,1944. […]
The mice are placed on a hot plate (Harvard Analgesimeter) at 55 ± 0.5 °C until they show a painful sensation by licking their paws or jumping and the time for these sensations to occur is recorded. This reading is considered the basal value (B). […]

Structure (SMILES)	IC50 [1]	Antagonistic Effect in (%) (cannabinoid receptors; 1.25 mg/kg)	Antagonistic Effect in (%) (cannabinoid receptors)
O=C(NN1CC2CCCC2C1)C1=NN(c2ccc(Cl)cc2Cl)C(c2ccc(Cl)cc2)C1 (stereo not shown) [Example 1, 5-(4-chlorophenyl)-1-(2,4-dichlorophenyl)-N-(hexahydrocyclopenta[c]pyrrol-2(1H)-yl)-4,5-dihydro-1H-pyrazole-3-carboxamide]	0.0126 µM	122 ± 4%	
O=C(NN1CC2CCCC2C1)C1=NN(c2ccc(Cl)cc2Cl)C(c2ccc(Br)cc2)C1 (stereo not shown) [Example 4, 5-(4-bromophenyl)-1-(2,4-dichlorophenyl)-N-(hexahydrocyclopenta[c]pyrrol-2(1H)-yl)-4,5-dihydro-1H-pyrazole-3-carboxamide]			121 ± 4%
O=C(NN1CC2CCCC2C1)C1=NN(c2ccc(Cl)cc2Cl)[C@@H](c2ccc(Cl)cc2)C1 (stereo partly drawn) [Example 2, (R)-5-(4-chlorophenyl)-1-(2,4-dichlorophenyl)-N-(hexahydrocyclopenta[c]pyrrol-2(1H)-yl)-4,5-dihydro-1H-pyrazole-3-carboxamide]	0.0158 µM		125.9%
O=C(NN1CC2CCCC2C1)C1=NN(c2ccc(Cl)cc2Cl)C(c2ccc(Cl)cc2)C1 (stereo not shown) [1 (HCl)]	0.0708 µM	117 ± 3%	
